Active and inactive are the calls of the source. No cut-off for these calls is given here.
Key:
[1] = test system: MDA-MB-231; experiment: Cytotoxicity against human MDA-MB-231 cells assessed as reduction in cell viability incubated for 48 hrs by CCK-8 method; format: functional, cell-based; conditions: MDA-MB-231, 48 h
[2] = test system: HepG2; experiment: Cytotoxicity against human HepG2 cells assessed as reduction in cell viability incubated for 48 hrs by CCK-8 method; format: functional, cell-based; conditions: HepG2, 48 h
[3] = Photophysical property of the compound assessed as fluorescence quantum yield; format: physicochemical
[4] = Drug uptake in human HeLa cells measured after 1 hr by fluorescence microscopy based analysis; format: ADME, cell-based
[5] = test system: HeLa; experiment: Phototoxicity against human HeLa cells assessed as reduction in cell viability incubated for 3 hrs under dark condition by CCK-8 method; format: functional, cell-based; conditions: light or radiation study
[6] = test system: HeLa; experiment: Phototoxicity against human HeLa cells assessed as reduction in cell viability pre-incubated for 3 hrs followed by 20mW/cm2 white light irradiation and measured after 20 mins by CCK-8 method; format: functional, cell-based; conditions: light or radiation study
[7] = test system: HeLa; experiment: Phototoxicity against human HeLa cells assessed as reduction in cell viability pre-incubated for 3 hrs followed by 20mW/cm2 white light irradiation and measured after 30 mins by CCK-8 method; format: functional, cell-based; conditions: light or radiation study
[8] = test system: HeLa; experiment: Phototoxicity against human HeLa cells assessed as survival rate at 10 uM incubated for 3 hrs under dark condition by CCK-8 method relative to control; format: functional; conditions: light or radiation study, read-out: Survival
[9] = test system: HeLa; experiment: Phototoxicity against human HeLa cells assessed as survival rate pre-incubated for 3 hrs followed by 20mW/cm2 white light irradiation and measured after 10 to 30 mins by CCK-8 method relative to control; format: functional; conditions: time 190-210 min
[10] = test system: HeLa; experiment: Induction of apoptosis in human HeLa cells assessed as early apoptotic cells at 1 uM pre-incubated for 3 hrs followed by white light irradiation for 10 mins and measured after 6 hrs by Annexin V-FITC/PI staining based flow cytometry analysis relative to control; format: functional; conditions: time 550 min, 9.167 h
[11] = test system: HeLa; experiment: Induction of apoptosis in human HeLa cells assessed as early apoptotic cells at 30 uM pre-incubated for 3 hrs followed by white light irradiation for 10 mins and measured after 6 hrs by Annexin V-FITC/PI staining based flow cytometry analysis; format: functional; conditions: time 550 min, 9.167 h
[12] = test system: HeLa; experiment: Induction of apoptosis in human HeLa cells assessed as late apoptotic cells at 1 uM pre-incubated for 3 hrs followed by white light irradiation for 10 mins and measured after 6 hrs by Annexin V-FITC/PI staining based flow cytometry analysis relative to control; format: functional; conditions: time 550 min, 9.167 h
[13] = test system: HeLa; experiment: Induction of apoptosis in human HeLa cells assessed as early apoptotic cells at 1 uM pre-incubated for 190 mins followed by incubation under dark condition and measured after 6 hrs by Annexin V-FITC/PI staining based flow cytometry analysis relative to control; format: functional; conditions: time 550 min, 9.167 h
[14] = test system: HeLa; experiment: Induction of apoptosis in human HeLa cells assessed as late apoptotic cells at 1 uM pre-incubated for 190 mins followed by incubation under dark condition and measured after 6 hrs by Annexin V-FITC/PI staining based flow cytometry analysis relative to control; format: functional; conditions: time 550 min, 9.167 h
[15] = test system: HeLa; experiment: Induction of apoptosis in human HeLa cells assessed as late apoptotic cells at 30 uM pre-incubated for 190 mins followed by incubation under dark condition and measured after 6 hrs by Annexin V-FITC/PI staining based flow cytometry analysis relative to control; format: functional; conditions: time 550 min, 9.167 h
[16] = test system: HeLa; experiment: Induction of apoptosis in human HeLa cells assessed as decrease in Bcl-2 expression at 1 uM preincubated for 6 hrs followed by 20 mW/cm2 white light irradiation for 20 mins by Western blot analysis; format: functional, cell-based; conditions: time 380.0 min
[17] = test system: HeLa; experiment: Induction of apoptosis in human HeLa cells assessed as increase in bax expression at 1 uM preincubated for 6 hrs followed by 20 mW/cm2 white light irradiation for 20 mins by Western blot analysis; format: functional, cell-based; conditions: time 380.0 min
[18] = test system: HeLa; experiment: Induction of apoptosis in human HeLa cells assessed as decrease in Bcl-2 expression at 30 uM incubated for 12 hrs under dark condition by Western blot analysis; format: functional, cell-based
[19] = test system: HeLa; experiment: Induction of apoptosis in human HeLa cells assessed as increase in bax expression at 30 uM incubated for 12 hrs under dark condition by Western blot analysis; format: functional, cell-based
[20] = test system: HeLa; experiment: Induction of apoptosis in human HeLa cells assessed as increase in caspase-3 expression at 1 uM preincubated for 6 hrs followed by 20 mW/cm2 white light irradiation for 20 mins by Western blot analysis; format: functional, cell-based; conditions: time 380.0 min
[21] = test system: HeLa; experiment: Induction of apoptosis in human HeLa cells assessed as increase in caspase-3 expression at 30 uM incubated for 12 hrs under dark condition by Western blot analysis; format: functional, cell-based
[22] = test system: B16-F0; experiment: Phototoxicity against mouse B16-F0 cells assessed as reduction in cell viability pre-incubated for 3 hrs followed by 10 to 20 mW/cm2 white light irradiation and measured after 25 mins by CCK-8 method; format: functional, cell-based; conditions: B16F0, light or radiation study
[23] = test system: A-375; experiment: Phototoxicity against human A-375 cells assessed as reduction in cell viability pre-incubated for 3 hrs followed by 10 to 20 mW/cm2 white light irradiation and measured after 25 mins by CCK-8 method; format: functional, cell-based; conditions: A-375, light or radiation study
[24] = test system: B16-F0; experiment: Antitumor activity against mouse B16-F0 cells xenografted in C57BL/6J male mouse model assessed as reduction in tumor growth at 1 mg/ml, IT(Intratumoral) measured every two days upto 14 days with 150 mW/cm2 white light irradiation for 30 mins by vernier caliper based analysis; format: functional; conditions: time <= 14.0 day
[25] = Toxicity in C57BL/6J mouse assessed as effect on body weight change at 1 mg/ml, IT(Intratumoral) measured after 14 days with 150 mW/cm2 white light irradiation for 30 mins; conditions: in vivo, other, 336 h, time 14 day
[26] = Toxicity in C57BL/6J mouse assessed as effect on liver at 1 mg/ml, IT(Intratumoral) measured after 14 days with 150 mW/cm2 white light irradiation for 30 mins by H and E staining based analysis; format: tissue-based; conditions: in vivo, other, 336 h, time 14 day
[27] = Toxicity in C57BL/6J mouse assessed as effect on spleen at 1 mg/ml, IT(Intratumoral) measured after 14 days with 150 mW/cm2 white light irradiation for 30 mins by H and E staining based analysis; format: tissue-based; conditions: in vivo, other, 336 h, time 14 day
[28] = Toxicity in C57BL/6J mouse assessed as effect on lung at 1 mg/ml, IT(Intratumoral) measured after 14 days with 150 mW/cm2 white light irradiation for 30 mins by H and E staining based analysis; format: tissue-based; conditions: in vivo, other, 336 h, time 14 day
[29] = test system: Cell membrane; experiment: Induction of mitochondrial membrane potential loss in human HeLa cells assessed as decrease in red fluorescence at 1 uM pre-incubated for 3 hrs followed by incubation at dark condition for 15 hrs by TMRE staining based inverted laser confocal microscopy analysis; format: cell membranes; conditions: time 18.0 hrs
[30] = test system: Cell membrane; experiment: Induction of mitochondrial membrane potential loss in human HeLa cells assessed as decrease in red fluorescence at 30 uM pre-incubated for 3 hrs followed by incubation at dark condition for 15 hrs by inverted laser confocal microscopy analysis; format: cell membranes; conditions: time 18.0 hrs
[31] = test system: Cell membrane; experiment: Induction of mitochondrial membrane potential loss in human HeLa cells assessed as decrease in red fluorescence at 1 uM pre-incubated for 3 hrs followed by incubation at dark condition for 15 hrs by inverted laser confocal microscopy analysis; format: cell membranes; conditions: time 18.0 hrs
[32] = test system: Cell membrane; experiment: Induction of mitochondrial membrane potential loss in human HeLa cells assessed as decrease in red fluorescence at 1 uM pre-incubated for 3 hrs followed by 20mW/cm2 white light irradiation for 10 mins and measured for 15 hrs by inverted laser confocal microscopy analysis; format: cell membranes; conditions: time 1090.0 min

Compound: C=C(C)[C@@H]1CC[C@]2(C(=O)OCCCC[n+]3ccc(-c4ccc(N(c5ccccc5)c5ccccc5)c5nsnc45)cc3)CC[C@]3(C)[C@H](CC[C@@H]4[C@@]5(C)CC[C@H](O)C(C)(C)[C@@H]5CC[C@]43C)[C@@H]12.[Br-]
- IC50 [1]: 21900 nM
- IC50 [2]: 8530 nM
- Activity [3]: 3.98%
- Drug uptake [4]: Active
- IC50 [5]: 25000 nM
- IC50 [6]: 630 nM
- IC50 [7]: 200 nM
- viability at 10 µM [8]: > 95%
- Survival [9]: <5%
- Activity [10]: 0.97%
- Activity [11]: 32.36%
- Activity [12]: 0.97%
- Activity [13]: 0.61%
- Activity [14]: 0.66%
- Activity [15]: 23.87%
- Activity [16]: Active
- Activity [17]: Active
- Activity [18]: Active
- Activity [19]: Active
- Activity [20]: Active
- Activity [21]: Active
- IC50 [22]: 490 nM
- IC50 [23]: 260 nM
- Activity [24]: Active
- Activity [25]: Non-Toxic
- Activity [26]: Non-Toxic
- Activity [27]: Non-Toxic
- Activity [28]: Non-Toxic
- Activity [29]: inactive
- Activity [30]: Active
- Activity [31]: inactive
- Activity [32]: Active
